Several values for one entry are separate records, joined by “and”; a condition that tells them apart may be missing. Equal entries are not always repeated.

This is an account of results in patent publication US20240165170A1, “USE OF LACTIC ACID BACTERIUM SET FOR PREVENTING OR TREATING NSAID-INDUCED GASTRIC ULCER” (GRAPE KING BIO LTD., priority 2022, published 2024).

The nature of data set [1]: body weight change of mice during the test. In kind it is in vivo. Conditions: between groups in the same period, p>0.05. How it is done:
(§1) 24 mice were divided into a blank control group, a negative control group, a positive control group and a lactic acid bacteria test group, and there were 6 mice in each group. The mice were administered once a day for 39 consecutive days. The blank control group and the negative control group were given drinking water, the positive control group was given 20 mg/kg Omeprazole, and the lactic acid bacteria test group was given GKD7 and GKA4 freeze-dried powder, each 10.2 mg/kg/day. On day 29, 500 mg/kg aspirin was administered to the negative control group, positive control group and lactic acid bacteria test group to induce gastric ulcer (the blank control group was not administered) for 10 days (D29-D39), and finally the mice were sacrificed on D40 and performed various analyses.
(§2) The body weight of the mice was recorded every week, and after 39 consecutive days of administration, the mice were sacrificed with a high dose of Sutai 50 on the 40th day. The appearance, stomach tissues and organs of the mice were observed and made records.

The subject of a further data set is ICR male mice. Kind of data set: aspirin-induced gastric ulcer test in ICR mice (ulcer area, ulcer index, cure rate, mucosal ulcer pathology). The format is in vivo. Also noted: key to Mucosal ulcer (pathological indicator, score per mouse): Grade 0 represents no ulcers occurred in normal tissue; Grade 1 represents less than ⅓ of superficial ulcer lesions in gastric mucosa; Grade 2 represents about ½ of superficial to middle ulcer lesions in gastric mucosa; Grade 3 represents about ⅔ of superficial to deep ulcer lesions in gastric mucosa; grade 4 represents gastric mucosal epithelial full-thickness ulcer and the lesion penetrates 3/3 of the muscle layer. How it is done: A total of 24 ICR male mice purchased from BioLASCO (Lesco Biotechnology) were used as the experimental animals, each about 25 grams. The mice were kept in a general mouse cage, the room temperature was maintained at 22±3° C., the humidity was 55±15%, and the light and darkness were regularly 12 hours (12 hr light-dark cycle). Feed and sterile reverse osmosis water was allowed to be eaten by mice freely. Newly imported animals need to be observed for 3-5 days to ensure that there is no abnormality before testing. Before the experiment, the ICR mice were randomly grouped and caged, and each ICR mouse was marked with an ear number for identification and recording.
as §1, §2
Ulcer area statistics: ImageJ software was utilized to circle the ulcer focus of gastric tissue to calculate the gastric ulcer focus area of each ICR mouse. Each ulcer focus can get different scores according to the size of the ulcer (see the table below):
After each ulcer focus score is obtained, the application calculates the ulcer index of the mouse according to the following formula 1, and the higher the ulcer index, the more severe the ulcer.
If the experimental group mice (positive control group, lactic acid bacteria test group) are compared with the negative control group mice and the area of gastric ulcer (ulcer index) is reduced, it means that the experimental group produces a healing effect. Dividing the ulcer index of the experimental group by the ulcer index of the negative control group obtains the ulcer improvement rate, which is then subtracted from 1 to get the healing rate (cure rate) compared with the negative control group. The calculation method is shown as the following formula 2: […]

For the compound `COc1ccc2[nH]c([S+]([O-])Cc3ncc(C)c(OC)c3C)nc2c1` (centres unmarked) [Omeprazole], the “body weight of mice during the test” value in data set [1] is “no significant difference”. The same compound came in with a ulcer area in the data set with ICR male mice (ICR mice, once daily for 39 days, 500 mg/kg aspirin D29-D39, sacrificed D40, 6 mice per group) of 7.12±2.15 mm^2. In the data set with ICR male mice (ICR mice, once daily for 39 days, 500 mg/kg aspirin D29-D39, formula 1, higher index = more severe ulcer), this compound gave a ulcer index of 2.57±0.67. Also, the “Cure rate (%)” value with ICR male mice (formula 2: 1 minus ulcer index of group / ulcer index of negative control group) amounted to 53.25%. In the data set with ICR male mice (stomach histopathology, individual mice, grade 0-4, higher score = more serious damage, listed as Positive control group), the “Mucosal ulcer (pathological indicator, score per mouse)” value was 0 and 1.
